# Experimental data as given in patent publication US6737383B1, “Herbicidal oxadiazolidines” (priority 1999, dated 2004).
# What was measured:
# blackgrass = experiment: Test B pre/postemergence blackgrass; assay type: in vivo, Alopecurus myosuroides
# Procedure, shortened: (§1)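 Response is a visual 0-to-10 score relative to untreated plants, where 0 means no effect and 10 means complete control, taken twelve to sixteen days after application. Treatments went onto soil at planting and onto foliage of 1- to 4-leaf plants, using a surfactant-containing non-phytotoxic solvent.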
# pigweed = experiment: Test B pre/postemergence pigweed; assay type: in vivo, Amaranthus retroflexus; details: for Plant response rating, Redroot pigweed: Postemergence
# Procedure, shortened: as §1
# giant foxtail = experiment: Test B pre/postemergence giant foxtail; assay type: in vivo, Setaria faberii
# Procedure, shortened: as §1
# crabgrass = experiment: Test B pre/postemergence crabgrass; assay type: in vivo, Digitaria sanguinalis
# Procedure, shortened: as §1
# sugar beet = experiment: Test B pre/postemergence sugar beet; assay type: in vivo, Beta vulgaris; details: for Plant response rating, Sugarbeets: Postemergence
# Procedure, shortened: as §1
# corn = experiment: Test B pre/postemergence corn; assay type: in vivo, Zea mays
# Procedure, shortened: as §1
# velvetleaf = experiment: Test B pre/postemergence velvetleaf; assay type: in vivo, Abutilon theophrasti; details: for Plant response rating, Velvetleaf: Postemergence
# Procedure, shortened: as §1
# wheat = experiment: Test B pre/postemergence wheat; assay type: in vivo, Triticum aestivum; details: for Plant response rating, Wheat: Postemergence
# Procedure, shortened: as §1
# wild oat = experiment: Test B pre/postemergence wild oat; assay type: in vivo, Avena fatua; details: for Plant response rating, Wild oats: Postemergence
# Procedure, shortened: as §1
# purple nutsedge = experiment: Test B pre/postemergence purple nutsedge; assay type: in vivo, Cyperus rotundus
# Procedure, shortened: as §1
# cocklebur = experiment: Test B pre/postemergence cocklebur; assay type: in vivo, Xanthium strumarium
# Procedure, shortened: as §1
# bedstraw = experiment: Test B pre/postemergence bedstraw; assay type: in vivo, Galium aparine
# Procedure, shortened: as §1
# morningglory = experiment: Test B pre/postemergence morningglory; assay type: in vivo, Ipomoea hederacea
# Procedure, shortened: as §1
# soybean = experiment: Test B pre/postemergence soybean; assay type: in vivo, Glycine max; details: for Plant response rating, Soybean: Postemergence
# Procedure, shortened: as §1
# rape = experiment: Test B pre/postemergence rape; assay type: in vivo, Brassica napus
# Procedure, shortened: as §1
# surinam grass = experiment: Test B pre/postemergence surinam grass; assay type: in vivo, Brachiaria decumbens
# Procedure, shortened: as §1
# [1] = Postemergence, Rate 62 g/ha, scale of 0 to 10, 0 is no effect, 10 is complete control
# [2] = Postemergence, Rate 125 g/ha, scale 0 to 10, 0 is no effect, 10 is complete control
# [3] = Postemergence, Rate 500 g/ha, scale of 0 to 10 where 0 is no effect and 10 is complete control
# [4] = Preemergence, Rate 62 g/ha, scale 0 to 10 (0 no effect, 10 complete control)
# [5] = Preemergence, Rate 125 g/ha, scale 0 to 10, 0 is no effect, 10 is complete control
# [6] = Preemergence, Rate 500 g/ha, scale of 0 to 10 where 0 is no effect and 10 is complete control
# [7] = Rate 250 g/ha, Postemergence, scale of 0 to 10 where 0 is no effect and 10 is complete control
# [8] = Rate 500 g/ha, scale of 0 to 10 where 0 is no effect and 10 is complete control
# [9] = Rate 250 g/ha, scale of 0 to 10 where 0 is no effect and 10 is complete control
# [10] = Preemergence, Rate 62 g/ha, scale of 0 to 10 where 0 is no effect and 10 is complete control
# [11] = Preemergence, Rate 250 g/ha, scale 0 (no effect) to 10 (complete control)
# [12] = Rate 500 g/ha, Preemergence, scale 0 to 10 (0 no effect, 10 complete control)
smiles,measurement,setting,value
COC(=O)CCCn1c(=O)on(C(=O)N(c2ccccc2)C(C)C)c1=O [Compound 572],Blackgrass plant response rating,blackgrass; [1],0
same,Blackgrass plant response rating,blackgrass; [2],0
same,"Plant response rating, Blackgrass",blackgrass; [3],0
same,Blackgrass plant response rating,blackgrass; [4],0
same,Blackgrass plant response rating,blackgrass; [5],0
same,Blackgrass plant response rating (0 to 10 scale),"blackgrass; Preemergence, Rate 250 g/ha",0
same,Blackgrass plant response rating,blackgrass; [6],0
same,"Plant response rating, Blackgrass",blackgrass; [7],0
same,"Plant response rating, Redroot pigweed",pigweed; [8],0
same,Redroot pigweed plant response rating,pigweed; [4],0
same,Redroot pigweed plant response rating,pigweed; [5],0
same,Redroot pigweed plant response rating (0 to 10 scale),"pigweed; Preemergence, Rate 250 g/ha",0
same,Redroot pigweed plant response rating,pigweed; [6],5
same,"Plant response rating, Redroot pigweed",pigweed; [9],0
same,Giant foxtail plant response rating,giant foxtail; [1],0
same,Giant foxtail plant response rating,giant foxtail; [2],0
same,"Plant response rating, Giant foxtail",giant foxtail; [3],0
same,Giant foxtail plant response rating,giant foxtail; [4],0
same,Giant foxtail plant response rating,giant foxtail; [5],0
same,Giant foxtail plant response rating (0 to 10 scale),"giant foxtail; Preemergence, Rate 250 g/ha",4
same,Giant foxtail plant response rating,giant foxtail; [6],7
same,"Plant response rating, Giant foxtail",giant foxtail; [7],0
same,Crabgrass plant response rating,crabgrass; [1],0
same,Crabgrass plant response rating,crabgrass; [2],0
same,"Plant response rating, Crabgrass",crabgrass; [3],8
same,Crabgrass plant response rating,crabgrass; [4],0
same,Crabgrass plant response rating,crabgrass; [5],0
same,Crabgrass plant response rating (0 to 10 scale),"crabgrass; Preemergence, Rate 250 g/ha",0
same,Crabgrass plant response rating,crabgrass; [6],0
same,"Plant response rating, Crabgrass",crabgrass; [7],6
same,"Plant response rating, Sugarbeets",sugar beet; [8],0
same,Sugarbeets plant response rating,sugar beet; [4],0
same,Sugarbeets plant response rating,sugar beet; [5],0
same,Sugarbeets plant response rating (0 to 10 scale),"sugar beet; Preemergence, Rate 250 g/ha",0
same,Sugarbeets plant response rating,sugar beet; [6],0
same,"Plant response rating, Sugarbeets",sugar beet; [9],0
same,Corn plant response rating,corn; [1],0
same,Corn plant response rating,corn; [2],0
same,"Plant response rating, Corn",corn; [3],0
same,Corn plant response rating,corn; [4],0
same,Corn plant response rating,corn; [5],0
same,Corn plant response rating (0 to 10 scale),"corn; Preemergence, Rate 250 g/ha",0
same,Corn plant response rating,corn; [6],0
same,"Plant response rating, Corn",corn; [7],0
same,"Plant response rating, Velvetleaf",velvetleaf; [8],7
same,Velvetleaf plant response rating,velvetleaf; [4],0
same,Velvetleaf plant response rating,velvetleaf; [5],0
same,Velvetleaf plant response rating (0 to 10 scale),"velvetleaf; Preemergence, Rate 250 g/ha",0
same,Velvetleaf plant response rating,velvetleaf; [6],2
same,"Plant response rating, Velvetleaf",velvetleaf; [9],0
same,"Plant response rating, Wheat",wheat; [8],0
same,Wheat plant response rating,wheat; [4],0
same,Wheat plant response rating,wheat; [5],0
same,Wheat plant response rating (0 to 10 scale),"wheat; Preemergence, Rate 250 g/ha",0
same,Wheat plant response rating,wheat; [6],0
same,"Plant response rating, Wheat",wheat; [9],0
same,"Plant response rating, Wild oats",wild oat; [8],0
same,Wild oats plant response rating,wild oat; [4],0
same,Wild oats plant response rating,wild oat; [5],0
same,Wild oats plant response rating (0 to 10 scale),"wild oat; Preemergence, Rate 250 g/ha",0
same,Wild oats plant response rating,wild oat; [6],0
same,"Plant response rating, Wild oats",wild oat; [9],0
same,Nutsedge plant response rating,purple nutsedge; [1],0
same,Nutsedge plant response rating,purple nutsedge; [2],0
same,Nutsedge plant response rating,purple nutsedge; [4],0
same,Nutsedge plant response rating,purple nutsedge; [5],0
same,Nutsedge plant response rating (0 to 10 scale),"purple nutsedge; Preemergence, Rate 250 g/ha",0
same,Nutsedge plant response rating,purple nutsedge; [6],0
same,"Plant response rating, Nutsedge",purple nutsedge; [7],0
same,Cocklebur plant response rating,cocklebur; [1],0
same,Cocklebur plant response rating,cocklebur; [2],0
same,"Plant response rating, Cocklebur",cocklebur; [3],0
same,Cocklebur plant response rating,cocklebur; [4],0
same,Cocklebur plant response rating,cocklebur; [5],0
same,Cocklebur plant response rating (0 to 10 scale),"cocklebur; Preemergence, Rate 250 g/ha",0
same,Cocklebur plant response rating,cocklebur; [6],0
same,"Plant response rating, Cocklebur",cocklebur; [7],0
same,Bedstraw plant response rating,bedstraw; [1],0
same,Bedstraw plant response rating,bedstraw; [4],0
same,Bedstraw plant response rating,bedstraw; [5],0
same,Bedstraw plant response rating (0 to 10 scale),"bedstraw; Preemergence, Rate 250 g/ha",0
same,Bedstraw plant response rating,bedstraw; [6],0
same,"Plant response rating, Bedstraw",bedstraw; [7],0
same,Morningglory plant response rating,morningglory; [1],3
same,Morningglory plant response rating,morningglory; [2],3
same,"Plant response rating, Morningglory",morningglory; [3],10
same,Morningglory plant response rating,morningglory; [4],0
same,Morningglory plant response rating,morningglory; [5],0
same,Morningglory plant response rating (0 to 10 scale),"morningglory; Preemergence, Rate 250 g/ha",0
same,Morningglory plant response rating,morningglory; [6],0
same,"Plant response rating, Morningglory",morningglory; [7],5
same,"Plant response rating, Soybean",soybean; [8],7
same,Soybean plant response rating,soybean; [4],0
same,Soybean plant response rating,soybean; [5],0
same,Soybean plant response rating (0 to 10 scale),"soybean; Preemergence, Rate 250 g/ha",0
same,Soybean plant response rating,soybean; [6],0
same,"Plant response rating, Soybean",soybean; [9],5
same,Rape plant response rating,rape; [1],2
same,Rape plant response rating,rape; [2],3
same,"Plant response rating, Rape",rape; [3],4
same,Rape plant response rating,rape; [4],0
same,Rape plant response rating,rape; [5],0
same,Rape plant response rating (0 to 10 scale),"rape; Preemergence, Rate 250 g/ha",0
same,Rape plant response rating,rape; [6],0
same,"Plant response rating, Rape",rape; [7],3
same,B. signalgrass plant response rating,surinam grass; [1],0
same,B. signalgrass plant response rating,surinam grass; [2],0
same,"Plant response rating, B. signalgrass",surinam grass; [3],0
same,B. signalgrass plant response rating,surinam grass; [4],0
same,B. signalgrass plant response rating,surinam grass; [5],0
same,"B. signalgrass plant response rating (0 to 10 scale, 0 is no effect, 10 is complete control)","surinam grass; Preemergence, Rate 250 g/ha",0
same,B. signalgrass plant response rating,surinam grass; [6],0
same,"Plant response rating, B. signalgrass",surinam grass; [7],0
CC(C)N(C(=O)n1oc(=O)n(C(C)C2CCC2)c1=O)c1ccccc1 (centres unmarked) [Compound 717],Blackgrass plant response rating,blackgrass; [10],9
same,Blackgrass plant response rating,blackgrass; [11],10
same,Blackgrass plant response rating,blackgrass; [12],10
same,Redroot pigweed plant response rating,pigweed; [10],6
same,Redroot pigweed plant response rating,pigweed; [11],8
same,Redroot pigweed plant response rating,pigweed; [12],8
same,Giant foxtail plant response rating,giant foxtail; [10],10
same,Giant foxtail plant response rating,giant foxtail; [11],10
same,Giant foxtail plant response rating,giant foxtail; [12],10
same,Crabgrass plant response rating,crabgrass; [10],10
same,Crabgrass plant response rating,crabgrass; [11],10
same,Crabgrass plant response rating,crabgrass; [12],10
same,Sugarbeets plant response rating,sugar beet; [10],0
same,Sugarbeets plant response rating,sugar beet; [11],2
same,Sugarbeets plant response rating,sugar beet; [12],3
same,Corn plant response rating,corn; [10],0
same,Corn plant response rating,corn; [11],3
same,Corn plant response rating,corn; [12],9
same,Velvetleaf plant response rating,velvetleaf; [10],0
same,Velvetleaf plant response rating,velvetleaf; [11],0
same,Velvetleaf plant response rating,velvetleaf; [12],0
same,Wheat plant response rating,wheat; [10],0
same,Wheat plant response rating,wheat; [11],0
same,Wheat plant response rating,wheat; [12],0
same,Wild oats plant response rating,wild oat; [10],9
same,Wild oats plant response rating,wild oat; [11],9
same,Wild oats plant response rating,wild oat; [12],10
same,Nutsedge plant response rating,purple nutsedge; [10],0
same,Nutsedge plant response rating,purple nutsedge; [11],0
same,Nutsedge plant response rating,purple nutsedge; [12],0
same,Cocklebur plant response rating,cocklebur; [10],0
same,Cocklebur plant response rating,cocklebur; [11],0
same,Cocklebur plant response rating,cocklebur; [12],0
same,Bedstraw plant response rating,bedstraw; [10],0
same,Bedstraw plant response rating,bedstraw; [11],0
same,Bedstraw plant response rating,bedstraw; [12],0
same,Morningglory plant response rating,morningglory; [10],0
same,Morningglory plant response rating,morningglory; [11],0
same,Morningglory plant response rating,morningglory; [12],0
same,Soybean plant response rating,soybean; [10],0
same,Soybean plant response rating,soybean; [11],0
same,Soybean plant response rating,soybean; [12],0
same,Rape plant response rating,rape; [10],0
same,Rape plant response rating,rape; [11],0
same,Rape plant response rating,rape; [12],4
same,B. signalgrass plant response rating,surinam grass; [10],4
same,B. signalgrass plant response rating,surinam grass; [11],7
same,B. signalgrass plant response rating,surinam grass; [12],7
